Measurements as given in patent publication US20100239652A1, “IMMUNOLIPOSOMES FOR TREATMENT OF CANCER” (UNIVERSITATSSPITAL BASEL, priority 2008, published 2010).
In brackets after ≈: the same amount, converted by molar mass.

B1: EMD72000-ILs-dox (conjugate, chains of the INN, looked up)
VH: QVQLVQSGAEVKKPGASVKVSCKASGYTFTSHWMHWVRQAPGQGLEWIGEFNPSNGRTNYNEKFKSKATMTVDTSTNTAYMELSSLRSEDTAVYYCASRDYDYDGRYFDYWGQGTLVTVSS
VL: DIQMTQSPSSLSASVGDRVTITCSASSSVTYMYWYQQKPGKAPKLLIYDTSNLASGVPSRFSGSGSGTDYTFTISSLQPEDIATYYCQQWSSHIFTFGQGTKVEIK
modifications: doxorubicin-loaded immunoliposomes

What was measured:
[1] = tested on: MDA-MB-231 wild type xenograft; assay: Tumor xenograft model, wild type; assay type: in vivo; details: for antitumor effect (tumor growth): i.v. 10 mg doxorubicin/kg once weekly for 3 weeks, total 30 mg dox/kg, compared to saline
Method: (§1) Efficacy for non-targeted liposomes versus anti-EGFR immunoliposomes were studied in the MDA-MB-231 wild type and resistant breast cancer xenograft tumor model. Swiss nu/nu mice (5-6 weeks; Charles River, France) were injected subcutaneously (s.c.) with EGFR-overexpressing MDA-MB-231 tumor cells (1×10^7 cells, wild type or resistant) into the back of the animal. […] Free drug was injected on the same schedule as liposomes or immunoliposomes intravenously at their MTD of 30 mg dox/kg for doxorubicin. In control groups, saline was administered intravenously at the same injection volume and schedule.
(§2) Tumor growth was monitored for a period of 55-100 days post tumor implantation. Mice were weighted and examined for toxicity three times a week. Tumor measurements were performed 2-3 times weekly using a caliper, and tumor volumes were calculated using the equation: (length × width^2)/2.
In the wild-type MDA-MB-231 xenograft model lacking mdr features, anti-EGFR immunoliposome-dox was administered i.v. at a total dose of 30 mg dox/kg divided into three weekly doses of 10 mg/kg. […] Control treatments included: saline; free doxorubicin and non-targeted liposomal doxorubicin (commercial pegylated liposomal doxorubicin; PLD) at the same dose and schedule as immunoliposomes.
(§3) In addition, a multivariate (rank) test was performed based on the sums of ranks for each mouse. Tumor size at each time point after last treatment was ranked across all mice for that day and the ranks were summed. The sum of the ranks was compared in each case for two treatments by a 2-sample t-test (42).

HT-29 WT = assay: Cytotoxicity study, MTT staining; assay type: cell-based, human
Method: (§4) Specific cytotoxicity of EGFR-targeted immunoliposomes containing doxorubicin was evaluated in target cells plated at a density of 8,000 cells per well in 96-well plates and allowed to grow overnight. Immunoliposomes or control treatments were applied for 2 h at 37° C., followed by washing with PBS and re-adding growth media. Cells were further incubated at 37 DC for 3 days and analyzed for cell viability using 3-(4,5-dimethylthiazol-2-yl)-2,5-diphenyl tetrazolium bromide (MTT) staining (41). For the cytotoxicity studies using the efflux pump inhibitor verapamil, this compound was added to the media at a concentration of 100 μM during the complete experiment.

MDA-MB-231 Vb100 = assay: Cytotoxicity study, MTT staining; assay type: cell-based, human
Method: as §4

HT-29 RDB = assay: Cytotoxicity study, MTT staining; assay type: cell-based, human
Method: as §4

[2] = tested on: MDA-MB-231 Vb100 xenograft; assay: Tumor xenograft model, multi-drug resistant; assay type: in vivo; details: i.v. 10 mg doxorubicin/kg once weekly for 3 weeks, total 30 mg dox/kg, compared to saline
Method: as §1, §2
Comparators included saline, free doxorubicin and non-targeted liposomal doxorubicin (commercial pegylated liposomal doxorubicin; PLD) at the same dose and schedule as immunoliposomes.
as §3

MDA-MB-231/mdr cells = assay: Accumulation of doxorubicin in the cytoplasma and nuclei; assay type: cell-based, human; details: multidrug resistant tumor cells
Method: For comparative accumulation studies, tumor cells (HT-29, HT-29 ROB, MDA-MB-231 or MDA-MB-231 Vb100) have been plated at a density of 200,000 cells per well in 12-well plates. Free doxorubicin, non-targeted liposomal doxorubicin (PLD) and immunoliposomal doxorubicin have been applied at a doxorubicin concentration of 3 μg/ml for 2 h at 37° C., followed by 2 washing rounds with media. Verapamil was added to the experiment in a concentration of 0, 10 or 100 μM. After another 2 h incubation without any treatment cells were analyzed as follows:
After removing the media, cells were washed once with 1 ml of culture medium containing FCS, followed by 1 ml of PBS with calcium and magnesium at room temperature (RT) for 3 min. […] For nuclear accumulation of doxorubicin the pellet with the nuclei was washed twice with 500 μl PBS containing 1% C100T and using subsequent centrifugation as described before. After careful removing of the final supernatant, doxorubicin from the pellets was extracted overnight by 400 μl 50% acid methanol.
From both cytoplasmic and nuclear extracts, 300 μl were transferred into a 96-well plate and measured by a “SpertraMax Gemini Fluorimeter” (Molecular Devices).

Molecule | antitumor effect (tumor growth) [1] | IC50 (HT-29 WT; non-resistant HT-29 cells, summary in description) [μg dox/ml] | IC50 (HT-29 WT; treatment for 2 h, MTT after 3 days) [µg/mL] | IC50 (MDA-MB-231 Vb100; highly drug resistant, 2 h treatment, MTT after 3 days) [µg/mL] | IC50 (MDA-MB-231 Vb100; in the presence of verapamil (100 μM)) [µg/mL] | IC50 (HT-29 RDB; HT-29/mdr cells, summary in description) [μg dox/ml] | IC50 (HT-29 RDB; treatment for 2 h, MTT after 3 days, multi-drug resistant sub cell line) [µg/mL] | antitumor effect (tumor growth) [2] | antitumor effect (tumor growth) ([2]; listed as free doxorubicin) | intracellular distribution (MDA-MB-231/mdr cells) | tumor regrowth during follow-up ([1]; after day 77 until end of observation (day 100))
COc1cccc2c1C(=O)c1c(O)c3c(c(O)c1C2=O)C[C@@](O)(C(=O)CO)C[C@@H]3O[C@H]1C[C@H](N)[C@H](O)[C@H](C)O1 [free dox, doxorubicin] | some tumor growth inhibition | 0.36 | 0.3 (≈ 0.552 µM) | 130 (≈ 239 µM) | 0.9 | 6.0 | 9.5 (≈ 17.5 µM) | failed to show any activity | did not show any tumor growth inhibition | efficiently pumped out | 
B1 | substantial tumor regressions |  |  |  |  |  |  | substantial tumor regressions |  |  | did not show growth activity
